# In patent EP0859607B1, “GUANIDINO PROTEASE INHIBITORS” (3-DIMENSIONAL PHARMACEUTICALS, INC., priority 1995, dated 1997):
# Structures can show the parent of a compound that is named as a salt.
# Legend:
# Format in all cases: biochemical
# [1] = biological target: T1, human α-thrombin (Homo sapiens, UniProt P00734); assay: In vitro inhibition of purified enzymes, Ki determination: thrombin; details: Enzyme: Thrombin; substrate Suc-Ala-Ala-Pro-Arg-pNA 20 µM; pH 7.5, 37°C
# T1 construct: Purified human α-thrombin was diluted into assay buffer; purchased Enzyme Research Laboratories (South Bend, Indiana)
# From the text: (§1) Reagents: All buffer salts were obtained from Sigma Chemical Company (St. Louis, MO), and were of the highest purity available. The enzyme substrates, N-benzoyl-Phe-Val-Arg-p-nitroanilide (Sigma B7632), N-benzoyl-Ile-Glu-Gly-Arg-p-nitroanilide (Sigma B2291), N-p-tosyl-Gly-Pro-Lys-p-nitroanilide (Sigma T6140), and N-succinyl-Ala-Ala-Pro-Phe-p-nitroanilide (Sigma S7388) were all obtained from Sigma.
# (§2) Human α-thrombin. human factor Xa, and human plasmin were obtained from Enzyme Research Laboratories (South Bend, Indiana). Bovine α-chymotrypsin and bovine trypsin were obtained from Sigma.
# Ki Determinations: All assays are based on the ability of the test compound to inhibit the enzyme-catalyzed hydrolysis of a peptide p-nitroanilide substrate. […] The final concentration for each of the substrates is listed below. In general, substrate concentrations are lower than the experimentally determined value for Km. Test compounds are prepared as a 0.16 mg/mL solution in DMSO. Dilutions are prepared in DMSO yielding 8 final concentrations encompassing a 200-fold concentration range. Enzyme solutions are prepared at the concentrations listed below in assay buffer.
# Data corresponding to less than 10% of the total substrate hydrolysis were used in the calculations. The ratio of the velocity (rate of the change in absorbance as a function of time) for a sample containing no inhibitor is divided by the velocity of a sample containing inhibitor, and is plotted as a function of inhibitor concentration. The data are fit to a linear regression, and the value of the slope of the line calculated. The inverse of the slope is the experimentally determined Ki value.
# Thrombin: Thrombin activity was assessed as the ability to hydrolyze the substrate Suc-Ala-Ala-Pro-Arg-pNA. […] Final DMSO concentration was 0.3%. […] Final reagent concentrations were: [thrombin] = 0.5 nM, [Suc-Ala-Ala-Pro-Arg-pNA] = 20 µM.
# [2] = biological target: T2, human Factor Xa (Homo sapiens, UniProt P00742); assay: In vitro inhibition of purified enzymes, Ki determination: factor Xa; details: Enzyme: Factor Xa; substrate Bz-Ile-Glu-Gly-Arg-pNA 51 µM; pH 7.5, 37°C
# T2 construct: purchased Enzyme Research Laboratories (South Bend, Indiana)
# From the text: as §1, §2
# (§3) Ki Determinations: All assays are based on the ability of the test compound to inhibit the enzyme-catalyzed hydrolysis of a peptide p-nitroanilide substrate. In a typical Ki determination, substrate is prepared in DMSO, and diluted into an assay buffer consisting of 50 mM HEPES, 200 mM NaCI, pH 7.5. The final concentration for each of the substrates is listed below. In general, substrate concentrations are lower than the experimentally determined value for Km. Test compounds are prepared as a 0.16 mg/mL solution in DMSO. Dilutions are prepared in DMSO yielding 8 final concentrations encompassing a 200-fold concentration range. […]
# Factor Xa: Factor Xa activity was assessed as the ability to hydrolyze the substrate Bz-Ile-Glu-Gly-Arg-pNA. […]
# [3] = biological target: T3, human plasmin (Homo sapiens, UniProt P00747); assay: In vitro inhibition of purified enzymes, Ki determination: plasmin; details: Enzyme: Plasmin; substrate Tos-Gly-Pro-Lys-pNA 22 µM; pH 7.5, 37°C
# T3 construct: Purified human plasmin was diluted into assay buffer; purchased Enzyme Research Laboratories (South Bend, Indiana)
# From the text: as §1, §2
# as §3, with “range. Enzyme solutions are prepared at the concentrations listed below in assay buffer.” for “range.”
# Plasmin: Plasmin activity was assessed as the ability to hydrolyze the substrate Tos-Gly-Pro-Lys-pNA. […]
# [4] = biological target: T4, bovine trypsin (Bos taurus, UniProt P00760); assay: In vitro inhibition of purified enzymes, Ki determination: trypsin; details: Enzyme: Trypsin; substrate Bz-Phe-Val-Arg-pNA 14 µM; pH 7.5, 37°C
# T4 construct: Purified bovine trypsin was diluted into assay buffer; purchased Sigma
# T4 sequence (P00760 24-246): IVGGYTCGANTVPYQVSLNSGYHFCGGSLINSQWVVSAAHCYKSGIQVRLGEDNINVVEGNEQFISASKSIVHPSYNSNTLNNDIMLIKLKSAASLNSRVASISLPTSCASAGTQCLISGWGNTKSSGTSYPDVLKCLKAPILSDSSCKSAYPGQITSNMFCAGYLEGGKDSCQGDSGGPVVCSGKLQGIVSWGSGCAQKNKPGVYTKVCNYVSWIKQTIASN
# From the text: as §1, §2
# as §3, with “range. Enzyme solutions are prepared at the concentrations listed below in assay buffer.” for “range.”
# Trypsin: Trypsin activity was assessed as the ability to hydrolyze the substrate Bz-Phe-Val-Arg-pNA. […]
# [5] = biological target: T5, bovine α-chymotrypsin (Bos taurus, UniProt P00766); assay: In vitro inhibition of purified enzymes, Ki determination: chymotrypsin; details: Enzyme: Chymotrypsin; substrate Suc-Ala-Ala-Pro-Phe-pNA 14 µM; pH 7.5, 37°C
# T5 construct: Purified bovine α-chymotrypsin was diluted into assay buffer; purchased Sigma
# From the text: as §1, §2, §3
# Chymotrypsin: Chymotrypsin activity was assessed as the ability to hydrolyze the substrate Suc-Ala-Ala-Pro-Phe-pNA. […]
# T2 sequence (P00742 235-488 limits assumed): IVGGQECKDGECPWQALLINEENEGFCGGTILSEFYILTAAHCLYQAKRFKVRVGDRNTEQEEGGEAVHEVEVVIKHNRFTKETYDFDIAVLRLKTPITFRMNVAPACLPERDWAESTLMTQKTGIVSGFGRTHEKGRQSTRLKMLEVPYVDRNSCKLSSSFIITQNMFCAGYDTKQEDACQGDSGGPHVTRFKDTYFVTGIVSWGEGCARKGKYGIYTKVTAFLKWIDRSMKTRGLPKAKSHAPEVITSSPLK
# T2 sequence (P00742 41-179 partner limits assumed): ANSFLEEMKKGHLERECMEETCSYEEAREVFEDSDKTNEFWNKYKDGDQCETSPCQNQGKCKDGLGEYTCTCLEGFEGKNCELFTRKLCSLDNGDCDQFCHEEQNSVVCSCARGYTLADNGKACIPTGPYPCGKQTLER
# T3 sequence (P00747 581-810 limits assumed): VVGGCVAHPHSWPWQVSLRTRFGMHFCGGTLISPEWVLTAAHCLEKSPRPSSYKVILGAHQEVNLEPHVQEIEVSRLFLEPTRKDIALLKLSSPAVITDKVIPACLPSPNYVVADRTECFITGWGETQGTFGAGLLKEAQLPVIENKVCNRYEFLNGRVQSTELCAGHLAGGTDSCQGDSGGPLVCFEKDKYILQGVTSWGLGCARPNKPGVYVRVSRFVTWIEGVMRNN
# T3 sequence (P00747 97-580 partner limits assumed): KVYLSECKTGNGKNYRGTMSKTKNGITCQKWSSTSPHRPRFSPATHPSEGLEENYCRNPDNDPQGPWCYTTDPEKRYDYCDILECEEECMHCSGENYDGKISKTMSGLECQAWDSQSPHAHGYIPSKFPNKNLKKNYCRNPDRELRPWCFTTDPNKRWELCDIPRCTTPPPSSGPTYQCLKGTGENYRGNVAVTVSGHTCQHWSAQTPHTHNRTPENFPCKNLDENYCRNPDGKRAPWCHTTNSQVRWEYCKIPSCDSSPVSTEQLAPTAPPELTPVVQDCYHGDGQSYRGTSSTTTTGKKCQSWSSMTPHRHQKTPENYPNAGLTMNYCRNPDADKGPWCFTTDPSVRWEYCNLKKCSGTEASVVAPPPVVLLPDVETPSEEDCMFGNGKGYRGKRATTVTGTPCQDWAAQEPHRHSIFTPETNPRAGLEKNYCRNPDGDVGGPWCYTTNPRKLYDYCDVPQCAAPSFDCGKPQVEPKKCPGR
Molecule,Ki [1] [nM],further results
"2,3-Dichlorobenzenesulfonic acid 3-[[1-(aminoiminomethyl)piperidin-4-yl]methoxy]-5-methylphenyl ester hydrochloride [Example 42]",21,–
2-Chlorobenzenesulfonic acid 3-[2-[1-(aminoiminomethyl)piperazin-4-yl]ethoxy]-5-methylphenyl ester diacetic acid salt [Example 6],330,–
2-Chlorobenzenesulfonic acid 3-[[1-(aminoiminomethyl)piperidin-3-yl]methoxy]-5-methylphenyl ester [Example 4],–,Ki [2]: 58100 nM
2-Chlorobenzenesulfonic acid 3-[[1-(aminoiminomethyl)piperidin-4-yl]methoxy]-5-hydroxymethylphenylester [Example 44],6900,–
2-Trifluoromethylbenzenesulfonic acid 3-[[1-(aminoiminomethyl)piperidin-4-yl]methoxy]-5-methylphenyl ester acetic acid salt [Example 38],19,–
3-Amino-2-chlorobenzenesulfonic acid 3-[[1-(aminoiminomethyl)piperidin-4-yl]methoxy]-5-methylphenyl ester dihydrochloride [Example 33],34,–
"N=C(N)N1CCN(CCOc2cccc(OS(=O)(=O)c3ccccc3Cl)c2)CC1 [Example 5, 2-Chlorobenzenesulfonic acid 3-[2-[1-(aminoiminomelhyl)piperazin-4-yl]ethoxy]phenyl ester diacetic acid salt]",–,Ki [3]: 29200 nM
"N=C(N)N1CCC(CNc2cccc(N(Cc3ccccc3)S(=O)(=O)c3ccccc3)c2)CC1 [Example 11, N-benzyl-N-[[3-(1-aminoiminomethyl)-piperidin-4-ylmethylamino]phenyl]benzenesulfonamide]",–,Ki [4]: 5300 nM
"N=C(N)N1CCC(COc2cc(OS(=O)(=O)c3ccccc3Cl)ccc2Cc2ccccc2)CC1 [Example 12, 2-Chlorobenzenesulfonic acid 3-[[1-aminoiminomethyl)piperidin-4-yl]methoxy]-4-benzylphenyl ester acetic acid salt]",–,Ki [5]: 12600 nM
Benzenesulfonic acid 3-[[1-(aminoiminomethyl)piperidin-4-yl]methoxy]-5-methylphenyl ester acetic acid salt [Example 17],36,–

# More lines, main results first:
Ki [1] [nM],Molecule,further results
40,2-Chlorobenzenesulfonic acid 3-[[1-(aminoiminomethyl)piperidin-4-yl]methoxy]-5-chlorophenyl ester hydrochloride [Example 24],–
250,2-Chlorobenzenesulfonic acid 3-[[1-(aminoiminomethyl)piperidin-4-yl]methoxy]phenyl ester [Example 1],–
8,"2-Chlorobenzenesulfonic acid, 3-[[1-(aminoiminomethyl)piperidin-4-yl]methoxy]-5-methylphenyl ester [Example 3]",–
